Drawing on paper PMC9527342, “An in vitro assay for enzymatic studies on human ALG13/14 heterodimeric UDP-N-acetylglucosamine transferase” (Frontiers in Cell and Developmental Biology, 2022), this text covers Km and Relative activity (%): GnTase conversion rate of the mutant / that of the wild type, detergent extract of E. coli membranes, 0.1 ng/ul ALG13, 37°C, 15 min for two molecules.

The target of assay [1] is T1, recombinant human ALG13/14 complex (FLAG-ALG13-iso2/6His-ALG14) (Homo sapiens, UniProt Q96F25+Q9NP73).
T1 construct: pelB-FLAG-ALG13-iso2 (25 kDa on SDS-PAGE) and 6His-ALG14 (22 kDa) co-expressed in E. coli Rosetta (DE3); purified from Triton X-100 membrane extract by HisTrap and anti-FLAG; tags kept; heterodimer, 45-66 kDa on native PAGE
T1 sequence (Q9NP73 1-165 isoform Q9NP73-2): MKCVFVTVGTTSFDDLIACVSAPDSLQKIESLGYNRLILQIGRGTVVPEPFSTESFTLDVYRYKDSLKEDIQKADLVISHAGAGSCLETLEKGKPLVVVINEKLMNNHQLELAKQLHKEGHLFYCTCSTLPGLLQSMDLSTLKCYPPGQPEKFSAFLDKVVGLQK
T1 sequence (Q96F25 1-216): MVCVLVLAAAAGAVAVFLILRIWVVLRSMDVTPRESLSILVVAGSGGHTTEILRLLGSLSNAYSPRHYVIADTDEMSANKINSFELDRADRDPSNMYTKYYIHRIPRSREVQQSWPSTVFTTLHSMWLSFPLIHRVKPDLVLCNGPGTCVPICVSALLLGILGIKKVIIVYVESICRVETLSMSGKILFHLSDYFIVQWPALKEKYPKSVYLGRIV
The assay can be described thus: LC-MS (UPLC-ESI-MS) of acid-released glycans, Michaelis-Menten fit. Format: biochemical. The following applies: acceptor 20-100 μM; 2 mM UDP-GlcNAc fixed; Tris/HCl pH 7.5, 0.3% NP-40, 23% glycerol, 37 °C, 15 min; no added metal; read-out: K m (apparent).

For assay [2], the target named is T2, 6His-ALG14 (human ALG14) (human) (UniProt Q96F25).
T2 sequence: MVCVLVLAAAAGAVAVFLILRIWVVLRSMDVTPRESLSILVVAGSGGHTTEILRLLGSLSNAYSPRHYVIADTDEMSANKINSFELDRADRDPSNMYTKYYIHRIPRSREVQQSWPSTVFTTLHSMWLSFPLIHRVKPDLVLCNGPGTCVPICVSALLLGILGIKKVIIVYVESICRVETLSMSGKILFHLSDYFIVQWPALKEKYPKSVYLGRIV

Consider `CC(=O)N[C@H]1[C@@H](OP(=O)(O)OP(=O)(O)OCC[C@@H](C)CC/C=C(/C)CC/C=C(/C)CC/C=C(/C)CC/C=C(/C)CC/C=C(/C)CC/C=C(/C)CC/C=C(/C)CC/C=C(/C)CC/C=C(/C)CC/C=C(/C)CC/C=C(/C)CC/C=C(/C)CC/C=C(/C)CC/C=C(/C)CC/C=C(/C)CC/C=C(\C)CC/C=C(\C)CCC=C(C)C)O[C@H](CO)[C@@H](O)[C@@H]1O` [Gn-PDol (C95)], for which the Km in assay [1] was found to be 94.1 ± 9.4 µM.

B1: FLAG-tagged ALG13-iso2 T141L (natural protein)
chain: MKCVFVTVGTTSFDDLIACVSAPDSLQKIESLGYNRLILQIGRGTVVPEPFSTESFTLDVYRYKDSLKEDIQKADLVISHAGAGSCLETLEKGKPLVVVINEKLMNNHQLELAKQLHKEGHLFYCTCSTLPGLLQSMDLSLLKCYPPGQPEKFSAFLDKVVGLQK
Turning to B1, the Relative activity (%): GnTase conversion rate of the mutant / that of the wild type, detergent extract of E. coli membranes, 0.1 ng/ul ALG13, 37°C, 15 min in assay [2] worked out at 26%.
